Measurements reported in patent publication US8450313B2, “2,3-diaryl- or heteroaryl-substituted 1,1,1-trifluoro-2-hydroxypropyl compounds” (Hoffmann-La Roche Inc., priority 2009, dated 2013).

Target: T1, full length human recombinant glucocorticoid receptor (Homo sapiens, UniProt P04150)
T1 construct: It contains some partially purified full length human recombinant glucocorticoid receptor; purchased Panvera/Invitrogen PV4302
T1 sequence (P04150 1-777): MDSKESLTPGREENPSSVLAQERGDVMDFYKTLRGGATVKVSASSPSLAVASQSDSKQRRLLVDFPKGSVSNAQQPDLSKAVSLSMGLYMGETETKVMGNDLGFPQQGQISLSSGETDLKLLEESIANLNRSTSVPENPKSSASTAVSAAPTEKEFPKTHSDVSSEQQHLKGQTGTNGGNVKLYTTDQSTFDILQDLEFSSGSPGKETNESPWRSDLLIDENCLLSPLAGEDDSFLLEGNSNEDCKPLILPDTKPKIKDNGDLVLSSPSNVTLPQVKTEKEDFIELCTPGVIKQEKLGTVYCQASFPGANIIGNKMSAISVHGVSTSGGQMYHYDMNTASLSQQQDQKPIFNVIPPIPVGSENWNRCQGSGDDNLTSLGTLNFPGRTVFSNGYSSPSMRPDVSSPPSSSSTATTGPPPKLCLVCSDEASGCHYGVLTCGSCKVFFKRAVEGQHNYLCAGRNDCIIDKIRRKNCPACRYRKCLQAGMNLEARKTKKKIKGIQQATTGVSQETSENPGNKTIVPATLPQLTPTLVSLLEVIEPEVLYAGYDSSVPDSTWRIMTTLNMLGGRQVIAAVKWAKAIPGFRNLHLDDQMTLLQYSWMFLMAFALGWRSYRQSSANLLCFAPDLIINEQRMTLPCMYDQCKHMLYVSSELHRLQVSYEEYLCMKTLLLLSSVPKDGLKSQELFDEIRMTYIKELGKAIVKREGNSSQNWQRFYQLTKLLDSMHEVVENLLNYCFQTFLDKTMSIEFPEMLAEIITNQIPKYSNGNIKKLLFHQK
Experiment: Glucocorticoid Receptor Binding Assay (Glucocorticoid Receptor Competitor Assay far red kit, fluorescence polarization)
Conditions: competition with fluorescent GR ligand Fluormone GS Far Red, 3 hours at 22° C., pH 7.4; Ki calculated from IC50 by Cheng-Prusoff
Outline: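 Fluorescence polarization competition with partially purified full-length human recombinant GR, stabilizing peptide and Fluormone GS Far Red tracer in screening buffer pH 7.4; 3 hours at 22° C in the dark, read at 610–660 nm. IC50 from sigmoidal fit; Ki by Cheng-Prusoff.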

| Compound | Ki [nM] |
| --- | --- |
| Cc1cc([C@@](O)([C@@H](C)c2ccc(Oc3ccc(C(=O)O)c(Cl)c3)cc2Cl)C(F)(F)F)cc(C)c1C#N (relative stereo) [Example 144, 2-Chloro-4-{3-chloro-4-[2-(4-cyano-3,5-dimethyl-phenyl)-3,3,3-trifluoro-2-hydroxy-1-methyl-propyl]-phenoxy}-benzoic acid] | 2.5 |
| C[C@H](c1ccc(Oc2ccc(C(=O)O)cn2)cc1Cl)[C@@](O)(c1ccc(C#N)cc1)C(F)(F)F (stereo in doubt) [Example 157, 6-{3-Chloro-4-[2-(4-cyano-phenyl)-3,3,3-trifluoro-2-hydroxy-1-methyl-propyl]-phenoxy}-nicotinic acid] | 19.8 |
| C[C@H](c1ccc(-c2ccc(C(=O)O)c(Cl)c2)cc1Cl)[C@@](O)(c1ccc2c(c1)oc(=O)n2C)C(F)(F)F (relative stereo) [Example 135, 3,3′-Dichloro-4′-[3,3,3-trifluoro-2-hydroxy-1-methyl-2-(3-methyl-2-oxo-2,3-dihydro-benzooxazol-6-yl)-propyl]-biphenyl-4-carboxylic acid] | 154 |
| C[C@@H](c1cc(OCC(=O)O)ccc1Cl)[C@](O)(c1ccc2c(c1)N(C)C(=O)CO2)C(F)(F)F (relative stereo) [Example 4, {4-Chloro-3-[3,3,3-trifluoro-2-hydroxy-1-methyl-2-(4-methyl-3-oxo-3,4-dihydro-2H-benzo[1,4]oxazin-6-yl)-propyl]-phenoxy}-acetic acid] | 426 |
| C[C@@H](c1ccc(-c2ccc(C(=O)O)c(Cl)c2)cc1Cl)[C@](O)(c1ccc2c(c1)N(C)C(=O)CO2)C(F)(F)F (relative stereo) [Example 31, 3,3′-Dichloro-4′-[3,3,3-trifluoro-2-hydroxy-1-methyl-2-(4-methyl-3-oxo-3,4-dihydro-2H-benzo[1,4]oxazin-6-yl)-propyl]-biphenyl-4-carboxylic acid] | 3.1 |
| COC(=O)CC1CCN(C(=O)c2ccc(Cl)c([C@H](C)[C@](O)(c3ccc4c(c3)N(C)C(=O)CO4)C(F)(F)F)c2)CC1 (relative stereo) [Example 19, (1-{4-Chloro-3-[3,3,3-trifluoro-2-hydroxy-1-methyl-2-(4-methyl-3-oxo-3,4-dihydro-2H-benzo[1,4]oxazin-6-yl)-propyl]-benzoyl}-piperidin-4-yl)-acetic acid methyl ester] | 214 |
| C[C@@H](c1cc(-c2cccc(C(=O)O)c2)ccc1Cl)[C@](O)(c1ccc2c(c1)N(C)C(=O)CO2)C(F)(F)F (relative stereo) [Example 18, 4′-Chloro-3′-[3,3,3-trifluoro-2-hydroxy-1-methyl-2-(4-methyl-3-oxo-3,4-dihydro-2H-benzo[1,4]oxazin-6-yl)-propyl]-biphenyl-3-carboxylic acid] | 609 |
| C[C@@H](c1ccc(Oc2ccc(C(=O)O)c(F)c2)cc1Cl)[C@](O)(c1ccc2c(c1)n(C)c(=O)n2C)C(F)(F)F (stereo in doubt) [Example 88, 4-{3-Chloro-4-[2-(1,3-dimethyl-2-oxo-2,3-dihydro-1H-benzoimidazol-5-yl)-3,3,3-trifluoro-2-hydroxy-1-methyl-propyl]-phenoxy}-2-fluoro-benzoic acid] | 0.7 |
| C[C@H](c1ccc(Oc2cnc(C(=O)O)cn2)cc1Cl)[C@@](O)(c1ccc2c(c1)n(C)c(=O)n2C)C(F)(F)F (relative stereo) [Example 106, 5-{3-Chloro-4-[2-(1,3-dimethyl-2-oxo-2,3-dihydro-1H-benzoimidazol-5-yl)-3,3,3-trifluoro-2-hydroxy-1-methyl-propyl]-phenoxy}-pyrazine-2-carboxylic acid] | 5.2 |
| C[C@H](c1ccc(-c2ccc(C(=O)O)c(Cl)c2)cc1Cl)[C@@](O)(c1ccc2c(c1)n(C)c(=O)n2C)C(F)(F)F (stereo in doubt) [Example 76, 3,3′-Dichloro-4′-[2-(1,3-dimethyl-2-oxo-2,3-dihydro-1H-benzoimidazol-5-yl)-3,3,3-trifluoro-2-hydroxy-1-methyl-propyl]-biphenyl-4-carboxylic acid] | 1 |
| COC(=O)c1ccc(-c2ccc([C@H](C)[C@](O)(c3ccc4c(c3)N(C)C(=O)CO4)C(F)(F)F)c(Cl)c2)cc1Cl (relative stereo) [Example 30, 3,3′-Dichloro-4′-[3,3,3-trifluoro-2-hydroxy-1-methyl-2-(4-methyl-3-oxo-3,4-dihydro-2H-benzo[1,4]oxazin-6-yl)-propyl]-biphenyl-4-carboxylic acid methyl ester] | 2 |
| C=CCN1C(=O)COc2ccc([C@](O)([C@H](C)c3ccc(-c4ccc(C(=O)OC)c(F)c4)cc3Cl)C(F)(F)F)cc21 (stereo in doubt) [Example 70, 4′-[2-(4-Allyl-3-oxo-3,4-dihydro-2H-benzo[1,4]oxazin-6-yl)-3,3,3-trifluoro-2-hydroxy-1-methyl-propyl]-3′-chloro-3-fluoro-biphenyl-4-carboxylic acid methyl ester] | 278 |

More lines, now with the values ahead:

| Ki [nM] | Compound |
| --- | --- |
| 0.9 | C[C@H](c1ccc(Br)cc1C(F)(F)F)[C@@](O)(c1ccc2oc(=O)n(C)c2c1)C(F)(F)F (relative stereo) [Example 193, 5-[2-(4-Bromo-2-trifluoromethyl-phenyl)-1-hydroxy-1-trifluoromethyl-propyl]-3-methyl-3H-benzooxazol-2-one] |
| 370 | C[C@H](c1ccc(OC(C)(C)C(=O)O)cc1Cl)[C@@](O)(c1ccc2c(c1)N(C)C(=O)CO2)C(F)(F)F (stereo in doubt) [Example 207, 2-{3-Chloro-4-[3,3,3-trifluoro-2-hydroxy-1-methyl-2-(4-methyl-3-oxo-3,4-dihydro-2H-benzo[1,4]oxazin-6-yl)-propyl]-phenoxy}-2-methyl-propionic acid] |
| 4.5 | C[C@H](c1ccc(-c2ccc(C(=O)O)c(F)c2)cc1C(F)(F)F)[C@@](O)(c1ccc2oc(=O)n(C)c2c1)C(F)(F)F (stereo in doubt) [Example 200, 3-Fluoro-4′-[3,3,3-trifluoro-2-hydroxy-1-methyl-2-(3-methyl-2-oxo-2,3-dihydro-benzooxazol-5-yl)-propyl]-3′-trifluoromethyl-biphenyl-4-carboxylic acid] |
| 3 | C[C@H](c1ccc(-c2cccc(C(=O)O)n2)cc1Cl)[C@@](O)(c1ccc2oc(=O)n(C)c2c1)C(F)(F)F (relative stereo) [Example 190, 6-{3-Chloro-4-[3,3,3-trifluoro-2-hydroxy-1-methyl-2-(3-methyl-2-oxo-2,3-dihydro-benzooxazol-5-yl)-propyl]-phenyl}-pyridine-2-carboxylic acid] |
| 0.8 | C[C@H](c1ccc(Oc2ccc(C(=O)O)c(Cl)n2)cc1Cl)[C@@](O)(c1ccc2oc(=O)n(C)c2c1)C(F)(F)F (relative stereo) [Example 184, 2-Chloro-6-{3-chloro-4-[3,3,3-trifluoro-2-hydroxy-1-methyl-2-(3-methyl-2-oxo-2,3-dihydro-benzooxazol-5-yl)-propyl]-phenoxy}-nicotinic acid] |
| 1 | COC(=O)c1ccc(Oc2ccc([C@H](C)[C@](O)(c3ccc4c(c3)N(C)C(=O)CO4)C(F)(F)F)c(Cl)c2)cc1Cl (single isomer, unassigned) [Example 217] |
| 0.5 | C[C@H](c1ccc(Oc2ccc(C(=O)O)cn2)cc1Cl)[C@@](O)(c1ccc2oc(=O)n(C)c2c1)C(F)(F)F (stereo in doubt) [Example 181, 6-{3-Chloro-4-[3,3,3-trifluoro-2-hydroxy-1-methyl-2-(3-methyl-2-oxo-2,3-dihydro-benzooxazol-5-yl)-propyl]-phenoxy}-nicotinic acid] |
| 2.2 | C[C@H](c1ccc(Oc2ccc(C(=O)O)c(Cl)n2)cc1Cl)[C@@](O)(c1ccc2c(c1)OCC(=O)N2C)C(F)(F)F (relative stereo) [Example 158, 2-Chloro-6-{3-chloro-4-[3,3,3-trifluoro-2-hydroxy-1-methyl-2-(4-methyl-3-oxo-3,4-dihydro-2H-benzo[1,4]oxazin-7-yl)-propyl]-phenoxy}-nicotinic acid] |
| 114 | C[C@H](c1ccc(-c2ccc(F)c(C(=O)O)c2)cc1Cl)[C@@](O)(c1ccc2c(c1)oc(=O)n2C)C(F)(F)F (relative stereo) [Example 178, 3′-Chloro-4-fluoro-4′-[3,3,3-trifluoro-2-hydroxy-1-methyl-2-(3-methyl-2-oxo-2,3-dihydro-benzooxazol-6-yl)-propyl]-biphenyl-3-carboxylic acid] |
| 3.3 | COC(=O)c1ccc(Oc2ccc([C@@H](C)[C@@](O)(c3ccc4oc(=O)n(C)c4c3)C(F)(F)F)c(Cl)c2)nc1Cl (stereo in doubt) [Example 182, 2-Chloro-6-{3-chloro-4-[3,3,3-trifluoro-2-hydroxy-1-methyl-2-(3-methyl-2-oxo-2,3-dihydro-benzooxazol-5-yl)-propyl]-phenoxy}-nicotinic acid methyl ester] |
